From article PMC5417501, “Occurrence of urea-based soluble epoxide hydrolase inhibitors from the plants in the order Brassicales” (PLoS ONE, 2017) come the findings set out here.

A short description of this data set: Overnight incubation of thiourea in water at room temperature without papaya seed. Type of data set: physicochemical. The settings on record: 10 μM in water.

For the molecule `S=C(NCc1ccccc1)NCc1ccccc1` [1,3-dibenzylthiourea], the “converted into compound 1” value was “Approximately 10%”.
